Data as given in patent US20240082221A1, “COMPOSITIONS AND METHODS FOR THE IDENTIFICATION OF COMPOUNDS THAT PROTECT AGAINST LIPOFUSCIN CYTOTOXICITY” (priority 2021, published 2024).
Like-named read-outs stand apart in the source and are kept apart here.

Assays:
pMLKL = assay: Fluorescence microscopy of pMLKL plasma membrane translocation in ARPE-19 monolayers; format: cell-based, Human; conditions: ARPE-19 with A2E or ATRD
Excerpt: Chronic accumulation of polymeric pMLKL could account for progressive damage in pigmented retinas as they amass LF.

hfRPE = assay: Light-independent lipofuscin cell-death/viability assay in hfRPE; format: cell-based, Human
Description: Cell culture. Human retinal pigment epithelium (ARPE-19) cells were obtained from ATCC and were cultured in Dulbecco's modified Eagle's medium (DMEM) supplemented with 10% FBS and 1% penicillin/streptomycin. Cells were kept in an incubator with 5% C02 and 95% humidified air at 37° C. Human fetal RPE (hfRPE) cells from donors at 16 to 18 weeks gestation were cultured at 37° C., 5% C02 in RPE medium. To grow polarized hfRPE cells, the cells were seeded in 12 well transwell plate in 1% RPE medium with Rock kinase inhibitor for the first week. After the first week, cells were cultured in normal 1% RPE medium for 3 weeks. Cells were used in passage 1.
Real time monitoring of necrotic and apoptotic cell-death.

ARPE-19 cells = test system: ARPE-19 cells
Description: Cell Viability Assay. […] 1× AlamarBlue solution prepared in OptiMEM was used to replace the media supernatant and the plate's fluorescence was determined at 555 nm excitation/585 nm emission with a SpectraMax M (Molecular Devices, CA, USA), after 1 h. […] The exact timing of appearance of far-red (DRAQ7=plasma membrane leakage) and blue (NUC405=caspase 3 activation) fluorescence signals was critical to differentiate apoptosis and necrosis from secondary events, such as membrane damage and generalized proteolytic activation during the late phase of apoptosis and necrosis, respectively.
Real time monitoring of necrotic and apoptotic cell-death. Cell-death assay to study Lipofuscin's dark toxicity was performed. 90% confluent ARPE-19 or hfRPE were incubated overnight in serum free media supplemented with indicated LB concentration. Viability was assessed at 24 hrs by AlamarBlue®, or microscopy with NUC405/DRAQ7. Real time monitoring of necrotic (red) and apoptotic (blue) cell-death was performed by automated fluorescence microscopy. The exact timing of appearance of far-red (DRAQ7=plasma membrane leakage) and blue (NUC405=caspase 3 activation) fluorescence signals was critical to differentiate apoptosis and necrosis from secondary events, such as membrane damage and generalized proteolytic activation during the late phase of apoptosis and necrosis, respectively.
Chemical inhibitors. Chemical inhibitors used in this study are described in FIG. 12.

human MLKL = assay: Western blot of Ser358 phospho-MLKL, phosphorylation and polymerization of MLKL; format: cell-based; conditions: non-reducing conditions, cells with A2E/ATRD
Description: Immunoblotting. Total cell lysates were extracted using RIPA lysis buffer (50 mM TrisHCl, Ph 8.0, 150 mM NaCl, 1% NP40, 0.5% Sodium Deoxycholate, 0.1% SDS, protease-phosphatase inhibitor) after the incubation of the specific sample group in a 48 well plate. Sonication or syringing (20 times) was done followed by centrifugation at 12,000×g for 10 mins and the supernatant was collected and stored in −80° C. Proten concentration from homogenates were assessed by Pierce Rapid Gold BCA protein assay kit (ThermoFisher Scientific, cat.no. A53225). Then 30 μg of protein was analyzed by standard SDS-PAGE gel. Samples were mixed 4:1 (v:v) with Nupage loading buffer with or without 8% 0-mercaptoethanol and heated for 10 min at 72° C. SDS-PAGE was done using 4-12% Nupage gel and buffer (Life, NP0335BOX). Next, SDS-PAGE gel was transferred to nitrocellulose membrane (Whatman, PROTAN BA83) overnight at 20V. The following day, 5% milk in TBS was used for 2 h blocking the membrane and then primary antibody was added in TBST (TBS, 0.1% Tween-20) for overnight at 4° C. Next day membranes were washed and incubated for 2 hours at room temperature with HRP conjugated secondary antibody (cat #G21234, Invitrogen) at 1:10,000 dilution. After 3 more washed membranes were probed with enhanced chemiluminescence (ECL) reagent and detected using an X-ray films for chemiluminescence image (GE healthcare, RPN2106). Scanning/imaging and quantitation of the image was done using silverfast 8 application software and Fiji Image J. Antibodies for Western blotting were list in FIG. 10.
For its phosphorylation, MLKL and its kinase need to be recruited into multiprotein complexes, known as necrosomes (FIG. 4O). Necrosomes are not well conserved among species and vary also with the nature of the stimuli that triggers their formation. […] Considering that phosphorylation of human MLKL at Ser358 (pMLKL), is a hallmark triggering event and marker of necroptosis, the Ser358-phosphorylation and polymerization status of MLKL in cells with LF was determined. […] A prerequisite for the assembly of these RIP kinases into necrosomes was their phosphorylation.

Structure (SMILES) | effect on LF-induced pMLKL plasma membrane localization (pMLKL) | survival to LF in hfRPE (hfRPE) | protection against light-independent LF (A2E/ATRD) cytotoxicity, RPE survival (ARPE-19 cells; ARPE-19, inhibitor pretreatment, A2E/ATRD 24 h, no light, AlamarBlue) | protection against light-independent LF (A2E/ATRD) cytotoxicity, RPE survival (ARPE-19 cells; ARPE-19, inhibitor pretreatment, A2E/ATRD 24 h, no light, AlamarBlue, listed as Nec-7) | effect on LF-induced phosphorylation and polymerization of MLKL (human MLKL) | protection against light-independent LF (A2E/ATRD) cytotoxicity, RPE survival (ARPE-19 cells)
N=C1S/C(=C\c2cn[nH]c2-c2ccc(F)cc2)C(=O)N1c1nccs1 [Nec7, Necrostatin 7] | effectively reverted the pMLKL membrane localization pattern | promote survival to LF | highly protective | protects against necroptosis by lipofuscin | reduced LF-induced phosphorylation and polymerization of MLKL | 
CC(C)(C)c1nc(-c2ccc(NC(=O)Nc3cccc(C(F)(F)F)c3)c3ccccc23)c2c(N)nccn12 [KIRA6] | inhibition of pMLKL plasma membrane translocation | promote survival to LF |  |  | prevents phosphorylation and polymerization of MLKL | sufficient to protect against necroptosis by LF
